We go through two compounds from patent publication US20070112075A1 (Forest Laboratories, Inc., priority 2005, published 2007).

Each structure is given as a SMILES string. Where a name gives a salt, the structure may show the parent alone.

The subject of data set [1] is monoamine oxidase. To be noted: cited from earlier work.
Data set [2] has as its system norepinephrine uptake. To be noted: cited from earlier work.
Data set [3] in a line: Stability of escitalopram oxalate in commercial formulations and in contact with bupropion hydrochloride. In kind it is physicochemical. The text has this: Preferably, the bupropion and escitalopram in the oral dosage form are physically separated. The inventors have discovered that conventional formulations of escitalopram hydrobromide and escitalopram oxalate unexpectedly degrade under storage conditions. […] The escitalopram and bupropion may be separated by having separate discrete zones of the dosage form (such as different layers) for each component. Alternatively, the dosage form may include a plurality of escitalopram tablets or beads and a plurality of bupropion tablets or beads, where one or both of the escitalopram tablets/beads and bupropion tablets/beads are coated.

Consider `CC(NC(C)(C)C)C(=O)c1cccc(Cl)c1` (racemic) [bupropion, (±)-1-(3-chlorophenyl)-2-[(1,1-dimethylethyl)amino]-1-propanone], for which the “inhibition of monoamine oxidase” value in data set [1] is “does not inhibit”. The “blockade of norepinephrine uptake” value in data set [2] was “weak blocker”.

Consider `CN(C)CCC[C@@]1(c2ccc(F)cc2)OCc2cc(C#N)ccc21` [escitalopram oxalate], for which, in data set [3] (commercial formulations), the “time stable in commercial formulations” value was “about 12 months”. The “degradation rate compared with commercial formulations” value in data set [3] (stored in intimate contact with bupropion hydrochloride) is on record as “degrades significantly more rapidly”.
